Data published in paper PMC5384220 (Nature Communications, 2017).

Key:
[1] = system: actin; conditions: U2OS cells, 0.5 μM; same for treated and untreated cells
Procedure: For CETSA melting curve experiments, 80% confluent U2OS cells in a 75 cm^2 flask were transfected with a plasmid encoding full-length Flag-tagged KDM4A1–1,064 (ref. [15]) or KDM4E1–506 (ref. [20]) using Lipofectamine 2000 (Thermo Scientific) and incubated for 4 h. The cells were washed with PBS buffer and media replaced with fresh DMEM with 10% FBS, supplemented with cyclic peptides in DMSO (0.1% DMSO final). Cell dosing was carried out for 20 h at 37 °C. Control cells were dosed only with DMSO. The cells were trypsinized and washed thrice with PBS, by centrifugation (300 g, 3 min, 4 °C). Cells were re-suspended in PBS supplemented with Complete Protease inhibitor cocktail (Sigma) and divided into 8–10 aliquots (100 μl) containing equal cell numbers in PCR tubes. […]
The samples (supernatant) were run on SDS–PAGE (NuPage Novex Bis-Tris 4–12% polyacrylamide gels with NuPAGE MES SDS running buffer (Thermo Scientific)) and transferred onto nitrocellulose membranes using either the iBlot blotting system. FLAG-KDM4A levels were determined by immunoblotting using a monoclonal mouse anti-FLAG primary antibody (F1804, Sigma), at a dilution of 1: 1,000 in PBS-T buffer containing Seablock Reagent Salmon Plasma (2% v/v, Calbiochem). […] Western blotting band intensities were quantified using Image Studio Ver. […]

[2] = target: T1, FLAG-KDM4A1-1,064 (Homo sapiens, UniProt O75164); assay: CETSA, FLAG-KDM4A in U2OS cells; type: cell-based; conditions: 0.5 μM, 20 h dosing, DMSO 47 °C
T1 construct: expressed in transfected cells; host or cells: U2OS
T1 sequence (O75164 1-1064): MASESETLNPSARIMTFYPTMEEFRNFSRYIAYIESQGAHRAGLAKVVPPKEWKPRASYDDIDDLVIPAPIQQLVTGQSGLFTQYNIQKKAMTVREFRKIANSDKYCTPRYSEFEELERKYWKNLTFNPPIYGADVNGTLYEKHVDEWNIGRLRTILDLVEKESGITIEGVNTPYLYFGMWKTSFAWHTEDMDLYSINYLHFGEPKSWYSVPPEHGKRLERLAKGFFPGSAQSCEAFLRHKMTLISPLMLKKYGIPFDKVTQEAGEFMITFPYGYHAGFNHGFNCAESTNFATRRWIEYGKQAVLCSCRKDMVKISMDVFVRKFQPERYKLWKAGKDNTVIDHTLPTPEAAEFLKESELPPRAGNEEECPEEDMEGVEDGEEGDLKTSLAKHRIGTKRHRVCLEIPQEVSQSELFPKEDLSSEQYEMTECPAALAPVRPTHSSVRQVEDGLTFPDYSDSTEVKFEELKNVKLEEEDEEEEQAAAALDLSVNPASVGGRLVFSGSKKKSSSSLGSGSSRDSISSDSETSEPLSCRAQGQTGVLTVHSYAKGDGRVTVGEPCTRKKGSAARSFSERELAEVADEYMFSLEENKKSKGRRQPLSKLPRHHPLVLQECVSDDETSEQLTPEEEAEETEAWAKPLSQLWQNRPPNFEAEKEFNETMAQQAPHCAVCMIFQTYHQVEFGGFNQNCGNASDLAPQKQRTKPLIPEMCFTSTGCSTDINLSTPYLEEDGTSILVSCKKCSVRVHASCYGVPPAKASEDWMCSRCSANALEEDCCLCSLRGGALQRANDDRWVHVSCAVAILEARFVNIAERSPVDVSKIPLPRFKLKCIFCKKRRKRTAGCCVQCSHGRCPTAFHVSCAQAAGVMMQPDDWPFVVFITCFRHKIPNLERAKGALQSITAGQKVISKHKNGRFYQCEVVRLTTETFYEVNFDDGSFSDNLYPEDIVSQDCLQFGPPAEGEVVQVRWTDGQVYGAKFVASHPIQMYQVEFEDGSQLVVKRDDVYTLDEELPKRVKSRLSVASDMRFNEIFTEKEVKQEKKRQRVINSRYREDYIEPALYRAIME
Procedure: Control cells were dosed only with DMSO.

[3] = target: T2, FLAG-KDM4E (Homo sapiens, UniProt B2RXH2); assay: CETSA, FLAG-KDM4E in U2OS cells; type: cell-based; conditions: 0.5 µM
T2 construct: expressed in transfected cells; host or cells: U2OS
T2 sequence (B2RXH2 1-506): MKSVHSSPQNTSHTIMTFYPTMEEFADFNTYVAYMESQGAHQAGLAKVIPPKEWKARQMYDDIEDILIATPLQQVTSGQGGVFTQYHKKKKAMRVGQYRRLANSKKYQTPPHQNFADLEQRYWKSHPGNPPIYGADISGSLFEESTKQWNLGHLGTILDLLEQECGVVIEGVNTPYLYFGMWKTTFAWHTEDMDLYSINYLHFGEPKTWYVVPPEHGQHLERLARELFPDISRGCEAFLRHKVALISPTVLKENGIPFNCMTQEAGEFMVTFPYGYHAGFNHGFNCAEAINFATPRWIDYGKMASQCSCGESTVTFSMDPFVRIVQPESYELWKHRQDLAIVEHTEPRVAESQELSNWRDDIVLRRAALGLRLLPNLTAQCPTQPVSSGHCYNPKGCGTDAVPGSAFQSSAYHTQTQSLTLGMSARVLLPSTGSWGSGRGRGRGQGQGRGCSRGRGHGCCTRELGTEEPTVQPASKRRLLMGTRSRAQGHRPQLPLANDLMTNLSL
Procedure: For CETSA melting curve experiments, 80% confluent U2OS cells in a 75 cm^2 flask were transfected with a plasmid encoding full-length Flag-tagged KDM4A1–1,064 (ref. [15]) or KDM4E1–506 (ref. [20]) using Lipofectamine 2000 (Thermo Scientific) and incubated for 4 h. The cells were washed with PBS buffer and media replaced with fresh DMEM with 10% FBS, supplemented with cyclic peptides in DMSO (0.1% DMSO final). Cell dosing was carried out for 20 h at 37 °C. Control cells were dosed only with DMSO. The cells were trypsinized and washed thrice with PBS, by centrifugation (300 g, 3 min, 4 °C). Cells were re-suspended in PBS supplemented with Complete Protease inhibitor cocktail (Sigma) and divided into 8–10 aliquots (100 μl) containing equal cell numbers in PCR tubes. For ITDRF CETSA experiments, approximately 6 × 10^6 cells were seeded evenly into nine 25 cm^2 flask and adhered before transfection. After 4 h of incubation, the cells were washed with PBS buffer and the media replaced with fresh DMEM with 10% FBS supplemented with cyclic peptides at a final concentration between 0 and 4,000 nM (0.1% DMSO final). Cells were trypsinized and washed thrice with PBS using centrifugation (300 g, 3 min, 4 °C). Cells were re-suspended in PBS supplemented with protease inhibitor cocktail (Sigma), aliquots (100 μl) containing equal cell numbers in PCR tubes were prepared. […] For ITDRF, tubes were incubated at approximately the Tm of the proteins of interest as determined by CETSA melting curve experiments, for example, 55 °C (Tm for actin) for 3 min, followed by room temperature for 3 min. […]
The samples (supernatant) were run on SDS–PAGE (NuPage Novex Bis-Tris 4–12% polyacrylamide gels with NuPAGE MES SDS running buffer (Thermo Scientific)) and transferred onto nitrocellulose membranes using either the iBlot blotting system. FLAG-KDM4A levels were determined by immunoblotting using a monoclonal mouse anti-FLAG primary antibody (F1804, Sigma), at a dilution of 1: 1,000 in PBS-T buffer containing Seablock Reagent Salmon Plasma (2% v/v, Calbiochem). […]

Sequence: DYVYNTRSGWRWYZC [T13Z]
- CETSA actin Tm [1]: 55 °C
- CETSA melting temperature (Tm) of FLAG-KDM4A [2]: 59 °C
- CETSA stabilization / Tm shift of FLAG-KDM4E [3]: No significant changes in the Tm shift
